In data set [1] the target is T1, P-gp (Homo sapiens, UniProt P08183). The following applies: for ERP-gp ERTRQ(−) − ERTRQ(+): P-gp-mediated efflux ratio.
A further data set concerns placental P-gp. The data set is described as follows: m-f PBPK prediction of maternal-fetal pharmacokinetics at gestational week 20 (GW20). Also noted: species or system human. The text has this:
GW20 was chosen since this is the earliest gestational age at which all the fetal physiologic parameters (e.g., organ volumes, partition coefficients, blood flows) are available.

The nature of data set [2]: Estimation of in vivo transplacental passive diffusion clearance by scaling midazolam CLint,PD,placenta with Papp ratio. Also noted: species or system human. The note with it: at term, scaled from midazolam by Papp ratio.
Data set [3] concerns the target T1, P-gp. The data set is described as follows: in vitro. The note with it: MDCK-MDR1, pH 7.4.
Data set [4] in a line: Observed or PopPK-model (published) maternal and fetal UV plasma pharmacokinetics in pregnant women. The following applies: coadministered with RTV.
For data set [5] the following is noted: ref DrugBank database; cited from earlier work.
The subject of data set [6] is 11 β-hydroxysteroid dehydrogenase-2. Also noted: method as in Blanford and Murphy, 1977; Murphy et al., 2007. The note with it: ref Blanford and Murphy, 1977, Murphy et al., 2007; cited from earlier work.
In a further data set the test system is MDCKII or Caco-2 cells. The following applies: determined in MDCKII or Caco-2 cells; ref Zhang and Unadkat, 2017; cited from earlier work.
The conditions of data set [7]: in vivo, at term; ref Zhang and Unadkat, 2017; cited from earlier work.

Each structure is given as a SMILES string. Converted amounts (≈) assume the structure as drawn. “And” between values parts separate entries of the source, which are not always exact repeats. Identical values can stand only once. Like-named read-outs stand apart in the source and are kept apart here.

T1 sequence (P08183 whole entry): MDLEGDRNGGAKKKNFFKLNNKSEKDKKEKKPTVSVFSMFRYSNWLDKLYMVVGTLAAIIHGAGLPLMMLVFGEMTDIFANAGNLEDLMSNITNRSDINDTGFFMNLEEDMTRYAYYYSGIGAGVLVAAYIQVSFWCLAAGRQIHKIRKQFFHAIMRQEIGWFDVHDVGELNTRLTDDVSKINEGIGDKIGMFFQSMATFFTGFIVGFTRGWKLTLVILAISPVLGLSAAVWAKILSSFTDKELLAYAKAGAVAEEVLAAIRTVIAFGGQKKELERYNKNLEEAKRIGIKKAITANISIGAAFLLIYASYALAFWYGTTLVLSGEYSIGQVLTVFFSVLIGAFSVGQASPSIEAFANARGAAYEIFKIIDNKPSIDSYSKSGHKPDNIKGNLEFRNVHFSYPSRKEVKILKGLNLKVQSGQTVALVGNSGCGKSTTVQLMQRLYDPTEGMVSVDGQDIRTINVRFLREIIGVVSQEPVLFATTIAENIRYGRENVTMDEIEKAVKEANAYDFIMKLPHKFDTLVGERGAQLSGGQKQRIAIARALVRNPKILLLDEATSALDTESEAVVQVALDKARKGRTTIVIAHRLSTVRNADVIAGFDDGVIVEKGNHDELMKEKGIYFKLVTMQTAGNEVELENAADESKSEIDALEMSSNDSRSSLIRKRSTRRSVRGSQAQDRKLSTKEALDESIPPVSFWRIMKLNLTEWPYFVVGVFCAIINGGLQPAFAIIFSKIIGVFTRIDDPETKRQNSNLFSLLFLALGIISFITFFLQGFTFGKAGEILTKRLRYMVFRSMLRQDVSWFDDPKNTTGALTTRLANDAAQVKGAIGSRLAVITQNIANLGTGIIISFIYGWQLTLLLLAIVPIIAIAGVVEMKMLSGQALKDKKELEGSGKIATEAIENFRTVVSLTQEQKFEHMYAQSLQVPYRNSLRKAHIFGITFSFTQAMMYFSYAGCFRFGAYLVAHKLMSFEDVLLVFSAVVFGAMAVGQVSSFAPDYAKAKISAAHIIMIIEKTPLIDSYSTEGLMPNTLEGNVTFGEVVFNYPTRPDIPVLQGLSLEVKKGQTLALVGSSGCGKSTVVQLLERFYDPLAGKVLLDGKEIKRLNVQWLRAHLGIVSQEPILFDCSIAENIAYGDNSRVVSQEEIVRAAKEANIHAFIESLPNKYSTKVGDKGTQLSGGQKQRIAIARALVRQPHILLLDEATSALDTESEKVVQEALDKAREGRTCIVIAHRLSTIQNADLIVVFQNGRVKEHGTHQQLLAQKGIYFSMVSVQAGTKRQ

Usually Papp stands for the rate of passage across a membrane or cell layer, normalised by area and donor concentration. One may read the solubility as the concentration that dissolves in the medium under given conditions. For `Cc1cccc(C)c1OCC(=O)N[C@@H](Cc1ccccc1)[C@@H](O)C[C@H](Cc1ccccc1)NC(=O)[C@H](C(C)C)N1CCCNC1=O` [LPV, lopinavir], at P-gp [1] (Mean ± S.D. of 4 experiments), the “ERP-gp ERTRQ(−) − ERTRQ(+)” value was 83.1 ± 10.1 and 83.1 ± 10.05. The “ERP-gp ERTRQ(−) − ERTRQ(+)” value at P-gp [1] (individual experiments (Exp no. 1-4)) is 94.35 and 88.78 and 73.99 and 75.27. Moreover, the “ERTRQ(−)” value on P-gp [1] (efflux ratio without tariquidar, individual experiments (Exp no. 1-4, each in triplicate), 2 µM DEX, BET, DRV, 1 µM LPV) is 95.37 and 90.07 and 75.63 and 76.57. For the same compound, in the data set on placental P-gp (GW20, adjusted for total placental P-gp abundance), the “CLint,P-gp,placenta” value was 617 L/h. For the same compound, the “CLint,PD,placenta” value with placental P-gp (GW20, from term value adjusted for placental surface area) was 49.5 L/h. For the same compound, the “CLint,P-gp,placenta at GW20, lower than the corresponding value at GW38” value in the data set with placental P-gp (GW20 versus GW38) was 40%. Moreover, in the data set on placental P-gp (m-f PBPK predicted), the “fetal Kp,uu at GW20 as percent of that at GW38” value was 64%, the “fetal UV plasma AUC0-12 at GW20 as percent of that at GW38” value is 38% and the “fetal plasma Cmax at GW20 as percent of that at GW38” value is listed as 41%. The “CLint,PD,placenta” value in data set [2] was 127 L/h. For the same compound, the Papp at P-gp [3] was 12.5 ×10⁻⁶ cm/s. Also, in data set [4], the “observed increase in maternal clearance in pregnancy” value amounted to 1.4 fold. For the same compound, the solubility in data set [5] is 3 µM (≈ 1.89 µg/mL).

In the case of `CC(C)CN(C[C@@H](O)[C@H](Cc1ccccc1)NC(=O)O[C@H]1CO[C@H]2OCC[C@H]21)S(=O)(=O)c1ccc(N)cc1` [DRV, darunavir], the solubility in data set [5] was 16 µM (≈ 8.76 µg/mL).

For `C[C@H]1C[C@H]2[C@@H]3CCC4=CC(=O)C=C[C@]4(C)[C@@]3(F)[C@@H](O)C[C@]2(C)[C@@]1(O)C(=O)CO` [BET, betamethasone], in data set [6], the “metabolized over 6 hours in vitro in placental microsomes” value is recorded as 10%–15%.

On to `C[C@@H]1C[C@H]2[C@@H]3CCC4=CC(=O)C=C[C@]4(C)[C@@]3(F)[C@@H](O)C[C@]2(C)[C@@]1(O)C(=O)CO` [DEX, dexamethasone], for which the “metabolized over 6 hours in vitro in placental microsomes” value in [6] was 10%–15%.

As to `Cc1ncc2n1-c1ccc(Cl)cc1C(c1ccccc1F)=NC2` [MDZ, midazolam], the Papp in the data set on MDCKII or Caco-2 cells was 49 ×10⁻⁶ cm/s. In addition, in [7], the “CLint,PD,placenta” value was 500 L/h.

Broadly, the efflux ratio is a quotient of directional permeabilities that is used to spot active efflux. With `C=C[C@H]1C[N@@]2CC[C@H]1C[C@@H]2[C@@H](O)c1ccnc2ccc(OC)cc12` [QND, Quinidine], on P-gp [3], the efflux ratio at 3 µM came to 11.1 ± 2.5.

The record behind these values is publication PMC8626637, “Successful Prediction of Human Fetal Exposure to P-Glycoprotein Substrate Drugs Using the Proteomics-Informed Relative Expression Factor Approach and PBPK Modeling and Simulation” (Drug Metabolism and Disposition, 2021).
